Values after ≈ are worked out from the molar mass of the structure shown. Values joined by “and” are separate entries in the source; they are usually repeats but may differ in a detail not shown here. Equal values may be shown once. Read-outs that look alike come from different tables or passages of the source. Marks after values point to notes of the source that are not given here.
Tests used:
[1] = system: cuprizone-induced demyelination; experiment: Mouse model of cuprizone-induced demyelination; assay type: in vivo, C57BL/6 female mice
Description: Compound 1 was tested in the mouse model of cuprizone-induced demyelination to determine the protective effects of Compound 1. The general protocol for cuprizone model demyelination is as follows:
C57BL/6 female mice at 7-8 weeks old were fed a cuprizone diet (7012, 0.2% cuprizone mixed in standard pellet rodent chow purchased from Harlan Teklad, Indianapolis, Ind., USA) for 5 weeks. The cuprizone food was changed every two days and given ad libitum along with water. An additional group of mice was fed normal chow for 5 weeks to serve as a no cuprizone control.
Animals were dosed intraperitoneally (i.p.) once daily based on body weight with Compound 1 (25 mg/kg, 10 mL/kg in saline), minocycline positive control (25 mg/kg, 10 mL/kg in saline) or saline sham starting on the day of cuprizone diet initiation (day 0) and continuing until day of harvest.
At 3, 4, and 5 weeks of cuprizone feeding, ten mice from each group were euthanized by CO2 asphyxiation and decapitation and the brains were harvested and fixed in 10% buffered neutral formalin.
Postfixed brains were paraffin embedded and 8-12 μm serial sections of the brain between the septostriatal and rostral diencephalon were prepared for luxol fast blue periodic acid-Schiff base (LFB-PAS) staining (demyelination). Both medial and lateral demyelination of the corpus callosum was determined.
Demyelination scores for the medial corpus callosum ranged from 0 to 4 (0=fully myelinated, 1=<⅓ demyelination in the center of the medial corpus callosum, 2=<⅔ demyelination in the center of the corpus callosum, 3=no myelin in the center of corpus callosum and 4=demyelination extending to the arch of the medial corpus callosum). Demyelination in the lateral corpus callosum was scored on weeks 4 and 5 and ranged from 0 to 3 (0=normal myelination and 3=complete demyelination). Demyelination was scored 2-3 times for at least 2 brain sections.
Axon loss in the medial corpus callosum was determined on additional serial sections of brain using Bielschowsky silver staining. Axon loss in the medial corpus callosum was scored from 0-4 (0=normal number of axons to 4=complete axon loss) at 3, 4 and 5 weeks. Slides were scored by two technicians who were blinded to the treatment groups.

[2] = system: cerebellar granule neurons; experiment: Glutamate-induced neurodegeneration in cerebellar granule neurons (MTT); assay type: cell-based, C57BL/6 mouse; conditions: Mus musculus, Neuron
Excerpt: The method for isolation of cerebellar granule neurons has been previously described in published studies. Neonate C57BL/6 mouse pups, 7-8 days old, are obtained. Heads are removed and rinsed in 70% alcohol and transfered to an 85 mm dish filled with PBS on ice. Heads are cut, the brains removed, and the cerebella dissected and placed in a 50 mm dish with PBS on ice. The meninges, choroids plexus and blood vessels are removed from the cerebellum and the cleaned organ is transferred to a 35 mm dish with Hank's buffered salt solution (HBSS) containing Ca^2+ and Mg^2+. Each cerebellum is cut into pieces and incubated with trypsin solution at 37° C. for 10 minutes, after which 0.5 mg/ml (final concentration) trypsin inhibitor and 0.1 mg/ml (final concentration) DNAse are added. After centrifugation, cerebellar fragments are resuspended in dissociation medium (HBSS with Ca^2+, Mg^2+, trypsin inhibitor, DNAse) and a single cell suspension generated by agitation with a Pasteur pipette. After the coarse debris settles, the supernatant (cell suspension) is passed through a cell strainer (40 μm, Becton Dickinson #1942501) into a 50 ml sterile tube and the cells centrifuged. Cells are washed and re-suspended in culture medium (BME Basal Medium containing 10% fetal bovine serum, 100 IU/ml penicillin/streptomycin, 10 mM HEPES, 25 mM KCl, 2 mM L-glutamine).
The cell suspension is transferred to poly-D-lysine-coated dishes and incubated for 25 min at 37° C. in 5% CO2. After incubation, the non-adherent cells are removed and counted with a hemocytometer. A suspension of 0.9×10^6 cells/ml is prepared in culture medium, and 100 μL volumes are added per well (250,000 cells/cm^2) in poly-D-Lysine coated 96-well plates. One day after plating, cytosine arabinoside (AraC) is added to a final concentration of 10 μM. After 6-8 days of in vitro culture, the neurons are ready to be used in the assay.
To test the activity of Compound 1 and minocycline, compounds were added to the neuron cultures at varying concentrations. Buffer was added to some cells as a negative control. After pre-incubation with compound for 30 minutes at 5% CO2, 37° C., glutamate was added at a final concentration of […] and the cells further incubated for 1 hour. Glutamate was not added to some cells as a positive control for cell survival. After the 1 hr period, cells were washed once with culture medium and 100 μL of fresh medium were added per well. Compounds were re-added to the cells and the cultures were incubated overnight at 5% CO2, 37° C. […] Spectrophotometric absorbance at wavelength 570 nm was measured using a microplate reader.
The MTT absorbance for non-stimulated cells was considered the 100% survival level.

[3] = system: LPS-induced TNFα production by RAW 264.7 macrophages; experiment: TNFα production assay, LPS-activated RAW 264.7 macrophages; assay type: cell-based; conditions: Mus musculus, RAW264.7
Description: Compound 1 was tested to determine specific anti-inflammatory characteristics. In vitro assays to assess the inhibition of substrate cleavage by matrix metalloproteinase 9 (MMP-9) and the inhibition of TNFα production by lipopolysaccharide (LPS)-activated macrophages were performed. MMP-9 activity was determined by fluorescence after incubation of recombinant MMP-9 with fluorescein-conjugated DQ gelatin for 90 min. TNFα production was determined by incubation of 10 ng/ml LPS with RAW264.7 macrophage cells for 24 h, followed by quantitation of TNFα in culture supernatant by ELISA.
The RAW 264.7 mouse macrophage cell line was grown to confluence in DMEM medium containing 10% fetal bovine serum (FBS). Cells were harvested into single-cell suspensions, seeded into 96-well plates at 1-2×10^5 cells/well (200 μL volume) and incubated (5% CO2, 37° C.) overnight. Compounds were added to the cells at final concentrations ranging from 50 to 1 μM and pre-incubated for 30 min. Lipopolysaccharide (LPS) was added to the cells at a final concentration of 10 ng/ml. After incubation for 20 hr, culture supernatants were harvested and transferred to a new 96-well plate. Levels of LPS-induced TNFα in the supernatants were quantified by ELISA (R & D Systems) with supernatants from unstimulated cells serving as a negative control.

E. coli = experiment: Antibacterial activity, E. coli MIC; assay type: cell-based; conditions: Escherichia coli; Table 8
[4] = Lateral Corpus Callosum, Week 4, 25 mg/kg/d i.p.
[5] = Lateral Corpus Callosum, Week 5, 25 mg/kg/d i.p.
[6] = Medial Corpus Callosum, Week 3, 25 mg/kg/d i.p.
[7] = Medial Corpus Callosum, Week 4, 25 mg/kg/d i.p.
[8] = Medial Corpus Callosum, Week 5, 25 mg/kg/d i.p.
[9] = Table 4, unit inferred, read-out: Neuroprotection (mouse CGN)
[10] = concentration at which 50% of the maximum response is observed, read-out: EC50, survival of glutamate-stimulated cerebellar granule neurons
[11] = 10 ng/ml LPS, 20 hr, read-out: TNFα Production (RAW264.7) IC50
[12] = Table 4, unit inferred, read-out: TNFα production (RAW264.7)

SMILES | % Inhibition Demyelination [1, 4] | % Inhibition Demyelination [1, 5] [%] | % Inhibition Axon Loss [1, 6] | % Inhibition Demyelination [1, 6] [%] | % Inhibition Axon Loss [1, 7] [%] | % Inhibition Demyelination [1, 7] [%] | % Inhibition Axon Loss [1, 8] [%] | % Inhibition Demyelination [1, 8] [%] | EC50 [2, 9] [µM] | EC50 [2, 10] [µM] | IC50 [3, 11] [µM] | IC50 [3, 12] [µM] | MIC (E. coli) [µg/mL] | % Inhibition Demyelination ([1]; Lateral Corpus Callosum, Week 4, 25 mg/kg/d i.p., listed as minocycline) [%]
CCc1cc(N(C)C)c2c(c1O)C(=O)C1=C(O)[C@]3(O)C(=O)C(C(N)=O)=C(O)[C@@H](N(C)C)[C@@H]3C[C@@H]1C2 [Compound 1] | 62% | 29 | 62% and 66* % | 70 | 41 | 13 | 3 | −11 | 2.6 ± 0.9 | 2.6 | 10.9 ± 1.6 | 10.9 ± 1.6 | > 64 | –
CN(C)c1ccc(O)c2c1C[C@H]1C[C@H]3[C@H](N(C)C)C(O)=C(C(N)=O)C(=O)[C@@]3(O)C(O)=C1C2=O [Minocycline, minocycline, reference compound] | 63* % | 25 | 29% | 31 | 30 | 17 | −10 | 12 | 1.4 ± 0.1 | 1.4 | 47 | 47 | 1 (≈ 2.19 µM) | 63
